Measured values reported in US8906952B2, “Indole derivative or pharmaceutically acceptable salt thereof, preparation method thereof, and pharmaceutical composition for preventing or treating metabolic diseases containing same as active ingredient” (Korea Research Institute of Bioscience and Biotechnology, priority 2011, dated 2014).

System: ICR mice
Assay: Acute toxicity assay
Assay type: in vivo
Conditions: oral 100, 250 mg/kg; observation over two weeks
Description: In order to investigate acute toxicity of the indole derivatives according to the present invention, mice (20±5 g, Central Lab. Animal Inc.) and rats (235±10 g, Central Lab. Animal Inc.) were used for the acute toxicity assay of compound 1.
A total of […] of 10 ICR mice were orally administered with compound 1 according to the present invention by the dose of 100, 250 mg/kg, respectively.

CC(C)N(NC(=O)c1ccccc1)C(=O)/C=C/c1cn(C(=O)OC(C)(C)C)c2ccccc12 [Example 1, (E)-tert-butyl 3-(3-(2-benzoyl-1-isopropylhydrazinyl)-3-oxoprop-1-enyl)-1H-indole-1-carboxylate]
death: no death
difference on the outside: nor did the groups show any specific difference on the outside
